Values after ≈ are worked out from the molar mass of the structure shown.
How the values were obtained:
[1] = test system: P388 leukemic tumor model; assay: P388 antitumoral model in vivo (survival time, i.p. treatment); design: species or system mice; details: for %C/T: average survival of tested group/average survival of controls
Experimental: Normally, 1x10^6 cells in ascitic fluid was implanted i.p. in CD2F1 mice. Treatment with the agent tested i.p. began one day after the tumor had been implanted and it is continued daily up to a total of 5 injections for synthetic products and of 9 injections for raw natural products. The results are expressed as percentage of the control survival time.
CDFl mice weighing 18-22 gr (+/- 3 gr) were implanted on day 0 of the test period o.1 ml. of a dilution of 1.0x10^7 tumor cells coming from DBA/2N mice used for the propagation of the tumor.
On day 1 of the test period the animals were grouped at random in groups of six animals.Each group is weighed and the average weight is written down. Each compound to be tested in diluted in 4 levels of dosis for each multidose test as of the determination of the highest nontoxic dose (v.g. 400 mg/kg; 100 mg/kg; 10 mg/kg.)
Administration of the test compounds is started on day 1 using volumns of 1/2 drug injected i.p. Injections are given on days 1 to 9 of the test period, unless it is indicated to the contrary. The animals are weighed on day 5, which is the one which in this system is considered the day of toxicity. Toxicity in this test system is defined as: • A. 34 % deaths up to day 5 - acute toxicity • B. C/T<85% - chronic toxicity • C. A negative average of the weight change of the animals> 4 g up to day 5 - chronic toxicity
The data obtained upon testing the compounds in vivo in comparison with the P388 leukemic tumor model in mice are shown in the following table: […]

[2] = mice, therapeutic doses; cited from earlier work
[3] = test system: P388 model; details: cited from earlier work
[4] = test system: P-388; assay: In vitro test, IC50 on P-388; assay type: cell-based; details: Mus musculus, P388; P-388, in vitro
Source text: (§1) On the other hand, the results of the tests in vitro carried out on compounds (IIIa) and (IIIb) were the following: […]

[5] = test system: A-549; assay: In vitro test, IC50 on A-549; assay type: cell-based; details: Homo sapiens, A549; A-549, in vitro
Source text: as §1

[6] = test system: HT-29; assay: In vitro test, IC50 on HT-29; assay type: cell-based; details: Homo sapiens; HT-29, in vitro
Source text: as §1

[7] = test system: MEL-28; assay: In vitro test, IC50 on MEL-28; assay type: cell-based; details: Homo sapiens, SK-MEL-28; MEL-28, in vitro
Source text: as §1

COC(=O)c1cc2c(n1C)C(=O)C=C1N(C(=O)c3cc4cc(OC)c(OC)c(OC)c4[nH]3)CC3CC123 (centres unmarked) [(VI), methyl 2-(5,6,7-trimethoxy-1H-indole-2-carbonyl)-5-methyl-4-oxo-1,2,4,5,8a-hexahydrocyclopropa[c]pyrrolo[3,2-e]indole-7-carboxylate]
%C/T ([1]; inject. dose 0.500 mg/kg): 210.9%
Significant activity (class of %C/T) ([1]; inject. dose 0.500 mg/kg): ** (Significant activity (strong): C/T > =175%)

Cc1c[nH]c2c1[C@@]13C[C@@H]1CN(C(=O)c1cc4cc(NC(=O)c5cc6ccccc6o5)ccc4[nH]1)C3=CC2=O [Adocelesine]
delayed lethality [2]: without provoking delayed lethality

O=C(Nc1ccc2[nH]c(C(=O)N3CC4CC45C3=CC(=O)c3ccccc35)cc2c1)c1cc2ccccc2[nH]1 (centres unmarked) [CBI-Ind2]
results in the P388 model in vivo [3]: very good results

COc1c(O)c2c(c3cc(C(=O)N4CCc5c4c(O)c(OC)c4[nH]c(C(=O)N6CC7CC78C6=CC(=O)c6[nH]cc(C)c68)cc54)[nH]c13)CCN2C(N)=O (centres unmarked) [CC-1065]
delayed lethality [2]: producing delayed deaths in mice at therapeutic doses

COC(=O)c1cn(C)c2c(O)cc3c(c12)C(CCl)CN3C(=O)c1cc2cc(NC(=O)c3cc4ccccc4o3)ccc2[nH]1 (centres unmarked) [Compound (III), methyl 6-{5-[(benzofuran-2-ylcarbonyl)-amino]1H-indole-2-carbonyl}-8-chloromethyl-4-hydroxy-3-methyl-3,6,7,8,tetrahydropyrrolo[3,2-e]indole-1-carboxylate]
%C/T ([1]; inject. dose 0.500 mg/kg): >391.3%

COC(=O)c1cn(C)c2c(O)cc3c(c12)C(CCl)CN3C(=O)c1cc2cc(OC)c(OC)c(OC)c2[nH]1 (centres unmarked) [Compound (V), methyl 6-(5,6,7-trimethoxy-1H-indole-2-carbonyl)-8-chloromethyl-4-hydroxy-3-methyl-3,6,7,8-tetrahydropyrrololo[3,2-e]indole-1-carboxylate]
%C/T ([1]; inject. dose 0.050 mg/kg): 133.9%
Significant activity (class of %C/T) ([1]; inject. dose 0.050 mg/kg): ** (Significant activity (strong): C/T > =175%)

COC(=O)c1cn(C)c2c(OC(C)=O)cc3c(c12)C(CCl)CN3C(=O)c1cc2cc(NC(=O)c3cc4ccccc4o3)ccc2[nH]1 (centres unmarked) [IIIa, methyl 4-acetoxy-6-{5-[(benzofuran-2-yl-carbonyl)-amino]1H-indole-2-carbonyl}-8-chloromethyl-3-methyl-3,6,7,8-tetrahydropyrrolo[3,2-e]indole-1-carboxylate]
IC50 [4]: 0.01 ng/mL (≈ 0.0156 nM)
IC50 [5]: 0.05 ng/mL (≈ 0.0782 nM)
IC50 [6]: 0.25 ng/mL (≈ 0.391 nM)
IC50 [7]: 0.25 ng/mL (≈ 0.391 nM)

methyl 2-[5-[(benzofuran-2-ylcarbonyl) amino]-1H-indol-2-carbonyl]-5-methyl-4-oxo,1,2,4,5,8,8,a-hexahydrocyclopropa[c]pyrrolo[3,2-e]indole-7-carboxylate [(IV)]
%C/T ([1]; inject. dose 0.300 mg/kg): 251.1%
Significant activity (class of %C/T) ([1]; inject. dose 0.300 mg/kg): ** (Significant activity (strong): C/T > =175%)
